Laboratory results from paper PMC2846521 (Journal of chemical information and modeling, 2009).

Assays:
[1] = biological target: T1, Gβ1γ2 (Homo sapiens, UniProt P62873); test: Competition ELISA with the high-affinity SIGK peptide; conditions: read-out: Median Inhibitory Concentration IC50 (binding inhibitors of SIGK); competition with SIGK peptide in ELISA
[2] = system: phospholipase C; conditions: cited from earlier work
[3] = system: phosphoinositide 3-kinase γ (PI3K); conditions: cited from earlier work
[4] = system: PI3K; conditions: cited from earlier work
[5] = mice; cited from earlier work
[6] = system: neutrophil; conditions: cited from earlier work
[7] = biological target: T1, Gβ1γ2; conditions: surface plasmon resonance; cited from earlier work

IC50 [1] [µM]	SMILES	also measured
7.1	Cc1cc(O)c(-c2cc(O)c(C)cc2O)cc1O [compound 2805]	
262	C[N+]1(CC[N+]2(C)CCCC2c2cccnc2)CCCC1c1cccnc1 (centres unmarked) [compound 3284]	
5.9	Cc1ccc(S(=O)(=O)OC2C(C3COC(C)(C)O3)OC3OC(C)(C)OC32)cc1 (centres unmarked) [compound 14163]	
59.1	C[N+]1(CCN[N+]2(C)CCCCC2)CCc2ccccc2C1 (centres unmarked) [compound 17770]	
292	CN(CCc1ccccn1)c1ccc2c(c1)C(=O)c1ccccc1-2 [compound 24048]	
197	COc1ccc(CC[N@+]2(C)COc3cc4oc(=O)cc(C)c4cc3C2)cc1OC [compound 59275]	
56	Nc1c(S(=O)(=O)O)cc(Nc2cccc(S(N)(=O)=O)c2)c2c1C(=O)c1ccccc1C2=O [compound 117079]	
4.3	O=C(O)c1c(Br)c(Br)c(Br)c(Br)c1C1c2ccc(O)cc2Oc2cc(O)ccc21 [compound 119889]	
0.2	O=C(O)/C=C/c1c2ccc(=O)c(O)c-2oc2c(O)c(O)ccc12 [compound 119911]	
24	O=C1c2ccccc2C(=O)c2c(NC3CCCCC3)ccc(Nc3ccc(S(=O)(=O)O)cc3)c21 [compound 128437]	

The next lines start with the compound.

SMILES	IC50 [1] [µM]	also measured
O=C1c2ccccc2C(=O)c2c1ccc(C(=O)O)c2-c1ccc2ccccc2c1 [compound 9608]	16.5	
CN(C)CS/C(N)=N/[C@H](O)C(Cl)(Cl)Cl [compound 14555]	26	
CCC(=O)OCN1C(=O)C=CC1=O [compound 19630]	53.6	
O=C(O)[C@@H]1[C@H](C(=O)O)[C@]2(Cl)C(Cl)=C(Cl)[C@@]1(Cl)C2(Cl)Cl [compound 22225]	11.4	
O=C1c2ccccc2C(=O)c2c(Nc3cc4c5c(ccc6c7ccc8c9c(cc(Nc%10cccc%11c%10C(=O)c%10ccccc%10C%11=O)c(c3c56)c97)-c3ccccc3C8=O)C(=O)c3ccccc3-4)cccc21 [compound 23128]	27	
Nc1ccc(S(=O)(=O)c2ccc(NCN3C(=O)NC(=O)C(=O)C3=O)cc2)cc1 [compound 34238]	42	
CN1C[C@H](c2ccccc2)C(O)([C@]2(c3ccccc3)CN(C)C[C@@H](c3ccccc3)C2=O)[C@H](c2ccccc2)C1 (some centres unmarked) [compound 39207]	10.7	
CC[N+](C)(CC)CCN1C(=O)c2ccccc2S1(=O)=O [compound 45126]	69.7	
O=C1C(Cl)=C(Nc2ccc(S(=O)(=O)Nc3ccccn3)cc2)C(=O)c2ccccc21 [compound 45382]	35.4	
O=C1c2cc([N+](=O)[O-])ccc2-c2ccc3c4ccc5c6c(ccc(c7ccc1c2c73)c64)C(=O)c1cc([N+](=O)[O-])ccc1-5 [compound 51535]	2.4	
CN(C)C1C(=O)C(C(N)=O)=C(O)C2(O)C(=O)C3=C(O)c4c(O)cccc4C(C)(O)C3CC12 (centres unmarked) [compound 69343]	16.8	
Nc1cc(S(N)(=O)=O)ccc1SSc1ccc(S(N)(=O)=O)cc1N [compound 83217]	56.9	
NCCNC(=S)S [compound 83224]	24.9	
C[C@]12CC[C@H]3[C@@H](CCC4=CC(=O)CC[C@@]43C)[C@@H]1CC[C@@H]2C(=O)COS(=O)(=O)c1ccc(Br)cc1 [compound 88915]	47.7	
C[N+]1(CCC[N+]2(C)C[C@H]3[C@H](C2)[C@H]2C=C[C@@H]3CC2)CCOCC1 (some centres unmarked) [compound 90831]	92.9	
C[C@H]1CCCC2(CC[N+](C)(CCC[N+](C)(C)C)CC2)C1 (some centres unmarked) [compound 95676]	182	
N=C1C(O)C2(I)c3ccccc3N3C(=N)C(O)C4c5ccccc5N1C4C32 (centres unmarked) [compound 118176]	8.1	
O=C(O)C1CCCCC1c1c2ccc(=O)c(O)c-2oc2c(O)c(O)ccc12 (centres unmarked) [compound 119910]	0.2	Gβγ-dependent activation of phospholipase C [2]: inhibit; Gβγ-dependent activation of phosphoinositide 3-kinase γ (PI3K) [3]: inhibit
CC1C2C=CC1C(c1c3ccc(=O)c(O)c-3oc3c(O)c(O)ccc13)C2C(=O)O (centres unmarked) [compound 119913]	0.7	
N=C(N)SCCN1CCCCC1 [compound 121771]	198	
Nc1ccc(-c2ccc(Nc3cc(S(=O)(=O)O)c(N)c4c3C(=O)c3ccccc3C4=O)cc2)c(S(=O)(=O)O)c1 [compound 125910]	18	
O=C(c1ccc([N+](=O)[O-])cc1)C(Br)C(Br)c1ccnc2ccccc12 (centres unmarked) [compound 150289]	42.5	
O=C1OC2(c3ccccc31)c1ccc(O)c(O)c1Oc1c2ccc(O)c1O [gallein]		PI3K activation [4]: inhibit; carrageenan-induced inflammation [5]: lessen; chemoattractant-dependent neutrophil migration [6]: inhibit; Kd [7]: ~0.4 µM
